Format in all cases: in vivo
What all share (conditions): active ingredient amount 31 g/ha, 14th day after application

Test [1] relates to redroot pigweed (Amaranthus retroflexus L.). As to the kind of experiment: Test Example 2: soil application on the day after sowing, growth inhibition rate on 14th day. The text has this: (§1) Upland field soil was put into a 1/300,000 hectare pot, and seeds of various plants (barnyardgrass (Echinochloa crus-qalli L.), crabgrass (Digitaris sanquinalis L.), green foxtail (Setaria viridis L.), redroot pigweed (Amaranthus retroflexus L.), prickly sida (Sida spinosa L.), velvetleaf (Abutilon theophrasti MEDIC.), rice (Oryza sativa L.), corn (Zea mays L.), wheat (Triticum aestivum L.), soybean (Glycine max Merr.)) were sown. On the day after sowing, wettable powders or emulsifiable concentrates of the compounds of the present invention prepared in accordance with a conventional preparation method, were weighed so as to achieve the prescribed active ingredient amounts, and diluted with water in an amount corresponding to 1,000 liters per 1 hectare, followed by soil application by a small sprayer.
(§2) On the 14th day after the application, the state of growth of the respective plants was visually observed, and the herbicidal effect was evaluated by a growth inhibition rate (%) of 0 (equivalent to the non-treated area) to 100 (complete kill).

Test [2] has as its system crabgrass (Digitaris sanquinalis L.). The description is as above.
Source text: as §1, §2

Test [3] relates to rice (Oryza sativa L.). The test is described as above.
Source text: as §1, §2

The subject of test [4] is prickly sida (Sida spinosa L.). The description is as above.
Source text: as §1, §2

For test [5], the system named is velvetleaf (Abutilon theophrasti MEDIC.). Described as above.
Source text: as §1, §2

For test [6], the system named is wheat (Triticum aestivum L.). The test is described as above.
Source text: as §1, §2

In test [7] the test system is soybean (Glycine max Merr.). The description is as above.
Source text: as §1, §2

In test [8] the test system is green foxtail (Setaria viridis L.). The test is described as above.
Source text: as §1, §2

Test [9] has as its system barnyardgrass (Echinochloa crus-qalli L.). The description is as above.
Source text: as §1, §2

In test [10] the test system is corn (Zea mays L.). The description is as above.
Source text: as §1, §2

In test [11] the test system is redroot pigweed (Amaranthus retroflexus L.). The experiment in a line: Test Example 1: foliar treatment, growth inhibition rate on 14th day. Put shortly:
(§3)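 Visual 0–100% inhibition scoring (100 = complete kill) at 14 days after foliar treatment of soil-grown seedlings at species-specific leaf stages, with the compound sprayed as a wettable powder or emulsifiable concentrate dilution.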

In test [12] the test system is crabgrass (Digitaria sanquinalis L.). The description is as above. Put shortly: as §3
Test [13] concerns rice (Oryza sativa L.). Described as above. Put shortly: (§4)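 Inhibition was rated visually 14 days after treatment on a 0–100% scale, where 100 is complete kill. Compounds, formulated as wettable powders or emulsifiable concentrates at set active-ingredient amounts, were diluted to 1,000 L/ha with 0.1 vol% spreader. The dilutions were sprayed post-emergence onto soybean (primary leaf), rice (0.2–2.7 leaf), wild oat (0.4–1.2) and green foxtail (0.5–3.2).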

Test [14] relates to wheat (Triticum aestivum L.). The description is as above. Put shortly: as §3
In test [15] the test system is soybean (Glycine max Merr.). The test is described as above. Put shortly: as §4
In test [16] the test system is wild oat (Avena fatua L.). The test is described as above. Put shortly:
as §4

For test [17], the system named is green foxtail (Setaria viridis L.). The test is described as above. Put shortly: as §4
In test [18] the test system is italian ryegrass (Lolium multiflorum Lam.). The test is described as above. Put shortly:
as §3

In test [19] the test system is barnyardgrass (Echinochloa crus-qalli L.). The test is described as above. Put shortly: as §3
Test [20] has as its system corn (Zea mays L.). Described as above. Put shortly:
as §3

[21] abbreviates: visual, 0 = non-treated, 100 = complete kill.

Results on 6 compounds are retold here after US10870638B2, “Pyridazinone compound or its salt, and herbicide containing it” (ISHIHARA SANGYO KAISHA, LTD., priority 2016, dated 2020).

As to `Cc1ccc(Oc2cnc3cc(Cl)ccc3n2)cc1-c1c(OS(=O)(=O)C(F)(F)F)c(C)nn(C)c1=O` [Compound 3-69], the “Growth inhibition rate (%) Redroot pigweed” value in test [1] and in [11] (setting [21]) was 0% each time. In addition, the “Growth inhibition rate (%) Crabgrass” value worked out at 30% in test [2] and 95% in [12] (setting [21]). For the same compound, the “Growth inhibition rate (%) Rice” value was determined as 0% in test [3] and 30% in [13] (setting [21]). Besides, in test [4], the “Growth inhibition rate (%) Prickly sida” value came out at 0%. Moreover, the “Growth inhibition rate (%) Velvetleaf” value in [5] is reported as 0%. For the same compound, the figures for the “Growth inhibition rate (%) Wheat” value in test [6] and in [14] (setting [21]) were 0% and 98%, respectively. In addition, the “Growth inhibition rate (%) Soybean” value in [7] and in test [15] (setting [21]) was 0% in each case. Further, the “Growth inhibition rate (%) Green foxtail” value is reported as 95% in test [8] and 100% in test [17] (setting [21]). Further, the figures for the “Growth inhibition rate (%) Barnyardgrass” value in [9] and in test [19] (setting [21]) were 93% and 100%, respectively. Moreover, the “Growth inhibition rate (%) Corn” value in test [10] is given as 0%; in test [20] (setting [21]) it was 20%. Besides, in test [16] (setting [21]), the “Growth inhibition rate (%) Wild oat” value is listed as 99%. For the same compound, the “Growth inhibition rate (%) Italian ryegrass” value in [18] (setting [21]) amounted to 99%.
With `Cc1ccc(Oc2ncc(Br)cc2Cl)cc1-c1c(O)c(C)nn(C)c1=O` [Compound 2-101], the “Growth inhibition rate (%) Redroot pigweed” value in test [1] and in test [11] was 0% throughout. The “Growth inhibition rate (%) Crabgrass” value in test [2] was 93%; in [12], 85%. The “Growth inhibition rate (%) Rice” value in [3] and in [13] was 0% in each case. Moreover, in [4], the “Growth inhibition rate (%) Prickly sida” value turned out to be 0%. For the same compound, the “Growth inhibition rate (%) Velvetleaf” value in test [5] worked out at 0%. In addition, the figures for the “Growth inhibition rate (%) Wheat” value in [6] and in test [14] were 10% and 0%, respectively. Besides, the “Growth inhibition rate (%) Soybean” value was 0% in test [7] and 20% in test [15]. Besides, the figures for the “Growth inhibition rate (%) Green foxtail” value in test [8] and in [17] were 95% and 88%, respectively. Also, the “Growth inhibition rate (%) Barnyardgrass” value is given as 78% in test [9] and 75% in [19]. Further, the entries for the “Growth inhibition rate (%) Corn” value in [10] and in test [20] were 20% and 80%, respectively. Moreover, in [16], the “Growth inhibition rate (%) Wild oat” value is listed as 70%. Further, the “Growth inhibition rate (%) Italian ryegrass” value in [18] is reported as 50%.
`Cc1ccc(Oc2cnc3cc(Cl)ccc3n2)cc1-c1c(OC(=O)COc2ccccc2)c(C)nn(C)c1=O` [Compound 3-48]: the “Growth inhibition rate (%) Redroot pigweed” value in test [1] and in test [11] (setting [21]) was 0% in each case. In addition, the “Growth inhibition rate (%) Crabgrass” value in test [2] is listed as 60%; in test [12] (setting [21]), 98%. Besides, the “Growth inhibition rate (%) Rice” value in test [3] and in test [13] (setting [21]) was 0% each time. Besides, the “Growth inhibition rate (%) Prickly sida” value in [4] came out at 0%. For the same compound, the “Growth inhibition rate (%) Velvetleaf” value in [5] was found to be 0%. In addition, the results for the “Growth inhibition rate (%) Wheat” value in test [6] and in [14] (setting [21]) were 20% and 90%, respectively. Besides, the “Growth inhibition rate (%) Soybean” value in [7] was 0%; in [15] (setting [21]), 10%. Also, the “Growth inhibition rate (%) Green foxtail” value in [8] and in test [17] (setting [21]) was 100% in each case. Further, the “Growth inhibition rate (%) Barnyardgrass” value in [9] came out at 98%; in [19] (setting [21]), 100%. In addition, the “Growth inhibition rate (%) Corn” value came to 0% in test [10] and 25% in test [20] (setting [21]). Further, the “Growth inhibition rate (%) Wild oat” value in test [16] (setting [21]) was found to be 75%. In addition, the “Growth inhibition rate (%) Italian ryegrass” value in [18] (setting [21]) worked out at 95%.
`Cc1cc(C)c(-c2c(O)c(C)nn(C)c2=O)cc1Oc1ncc(C(F)(F)F)cc1Cl` [1-14]: the “Growth inhibition rate (%) Redroot pigweed” value in [1] and in test [11] was 0% throughout. The “Growth inhibition rate (%) Crabgrass” value in test [2] is 83%; in test [12] it was 93%. Besides, the “Growth inhibition rate (%) Rice” value in [3] was 0%; in test [13], 80%. Also, the “Growth inhibition rate (%) Prickly sida” value in test [4] is on record as 0%. For the same compound, the “Growth inhibition rate (%) Velvetleaf” value in [5] was determined as 0%. Further, the “Growth inhibition rate (%) Wheat” value in test [6] and in test [14] was 0% throughout. Also, the “Growth inhibition rate (%) Soybean” value in test [7] and in test [15] was 0% each time. The “Growth inhibition rate (%) Green foxtail” value is given as 93% in test [8] and 98% in [17]. For the same compound, the “Growth inhibition rate (%) Barnyardgrass” value in [9] was found to be 99%; in test [19], 98%. In addition, the “Growth inhibition rate (%) Corn” value in test [10] turned out to be 0%; in test [20] it was 70%. Besides, the “Growth inhibition rate (%) Wild oat” value in test [16] came to 95%. Further, in test [18], the “Growth inhibition rate (%) Italian ryegrass” value was determined as 85%.
In the case of `CCn1ncc(O)c(-c2cc(Oc3ncc(C(F)(F)F)cc3Cl)ccc2C)c1=O` [1-157], the “Growth inhibition rate (%) Redroot pigweed” value in test [1] and in test [11] was 0% in each case. The “Growth inhibition rate (%) Crabgrass” value in test [2] worked out at 99%; in test [12], 100%. Besides, the “Growth inhibition rate (%) Rice” value in test [3] stood at 40%; in [13], 80%. In addition, the “Growth inhibition rate (%) Prickly sida” value in [4] is on record as 0%. For the same compound, the “Growth inhibition rate (%) Velvetleaf” value in test [5] amounted to 0%. Further, the “Growth inhibition rate (%) Wheat” value in test [6] stood at 0%; in test [14], 93%. Moreover, the “Growth inhibition rate (%) Soybean” value turned out to be 30% in [7] and 20% in test [15]. The “Growth inhibition rate (%) Green foxtail” value in [8] and in [17] was 100% each time. For the same compound, the “Growth inhibition rate (%) Barnyardgrass” value in [9] and in test [19] was 100% in each case. Further, the “Growth inhibition rate (%) Corn” value is recorded as 0% in test [10] and 100% in test [20]. The “Growth inhibition rate (%) Wild oat” value in test [16] came to 100%. For the same compound, the “Growth inhibition rate (%) Italian ryegrass” value in test [18] is given as 99%.
With `Cc1ccc(Oc2ccc(C(F)(F)F)cn2)cc1-c1c(O)c(C)nn(C)c1=O` [Compound 2-3], the “Growth inhibition rate (%) Redroot pigweed” value in test [1] and in test [11] was 0% each time. In addition, the results for the “Growth inhibition rate (%) Crabgrass” value in test [2] and in test [12] were 80% and 15%, respectively. Also, the figures for the “Growth inhibition rate (%) Rice” value in [3] and in test [13] were 20% and 10%, respectively. Moreover, the “Growth inhibition rate (%) Prickly sida” value in [4] is given as 0%. For the same compound, the “Growth inhibition rate (%) Velvetleaf” value in test [5] is listed as 0%. Besides, the “Growth inhibition rate (%) Wheat” value in test [6] amounted to 0%; in test [14], 30%. Further, the entries for the “Growth inhibition rate (%) Soybean” value in [7] and in [15] were 0% and 10%, respectively. The “Growth inhibition rate (%) Green foxtail” value is 98% in test [8] and 85% in [17]. Also, the “Growth inhibition rate (%) Barnyardgrass” value is 50% in [9] and 85% in test [19]. Moreover, the “Growth inhibition rate (%) Corn” value is on record as 0% in [10] and 10% in [20]. In [16], the “Growth inhibition rate (%) Wild oat” value amounted to 35%. The “Growth inhibition rate (%) Italian ryegrass” value in [18] stood at 20%.
